According to patent US10266513B2 (Pfizer Inc., priority 2012, dated 2019):

target: human full-length BTK Kinase (Homo sapiens (Human), UniProt Q06187); assay: Human BTK LanthaScreen Assay (TR-FRET); type: biochemical; conditions: 50 μM ATP, FAM-Srctide peptide substrate, read-out: BTK Inhibition IC50
Text: Human BTK LanthaScreen Assay

human full-length BTK Kinase, sequence (Q06187 whole entry): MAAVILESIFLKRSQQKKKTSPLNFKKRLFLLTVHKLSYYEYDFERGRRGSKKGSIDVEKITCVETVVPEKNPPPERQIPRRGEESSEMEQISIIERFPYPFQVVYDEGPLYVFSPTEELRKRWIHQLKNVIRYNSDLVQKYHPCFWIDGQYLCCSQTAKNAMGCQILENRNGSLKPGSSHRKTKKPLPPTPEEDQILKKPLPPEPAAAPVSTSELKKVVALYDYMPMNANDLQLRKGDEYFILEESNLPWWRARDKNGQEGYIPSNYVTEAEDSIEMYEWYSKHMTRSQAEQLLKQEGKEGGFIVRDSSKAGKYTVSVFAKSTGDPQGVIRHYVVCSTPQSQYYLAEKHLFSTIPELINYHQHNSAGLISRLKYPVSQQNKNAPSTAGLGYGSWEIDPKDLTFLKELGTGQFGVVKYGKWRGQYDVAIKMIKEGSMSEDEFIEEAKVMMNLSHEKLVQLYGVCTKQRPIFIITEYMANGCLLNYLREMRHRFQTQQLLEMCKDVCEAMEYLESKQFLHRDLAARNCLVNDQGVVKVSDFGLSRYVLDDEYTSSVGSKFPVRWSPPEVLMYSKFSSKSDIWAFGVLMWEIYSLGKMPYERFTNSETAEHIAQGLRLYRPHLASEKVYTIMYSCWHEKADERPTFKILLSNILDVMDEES

How did the IC50 turn out when Cc1cc(F)ccc1Oc1ccc(-c2nn(C3CCCN(C#N)C3)c(N)c2C(N)=O)cc1 (centres unmarked) [Example 32, 5-amino-1-(1-cyanopiperidin-3-yl)-3-[4-(4-fluoro-2-methylphenoxy)phenyl]-1H-pyrazole-4-carboxamide] was run?
Its IC50 is 4.1 nM.

With NC(=O)c1c(-c2ccc(Oc3ccc(F)cc3F)cc2)nn([C@@H]2CCCN(C(=O)/C=C/CCO)C2)c1N [Example 141, 5-amino-3-[4-(2,4-difluorophenoxy)phenyl]-1-{(3R)-1-[(2E)-5-hydroxypent-2-enoyl]piperidin-3-yl}-1H-pyrazole-4-carboxamide] as the compound, how does the IC50 read?
The IC50 was 58 nM.

With N#CN1CCCC(n2nc(-c3ccc(Oc4cc(Cl)ccc4F)cc3)c(C(N)=O)c2N)C1 (centres unmarked) [Example 49, 5-amino-3-[4-(5-chloro-2-fluorophenoxy)phenyl]-1-(1-cyanopiperidin-3-yl)-1H-pyrazole-4-carboxamide] as the compound, how does the IC50 read?
The IC50 was 2.2 nM.

Which IC50 does the source give for N#CN1CCCC(n2nc(-c3ccc(Oc4cccc(Cl)c4F)cc3)c(C(N)=O)c2N)C1 (centres unmarked) [Example 57, 5-amino-3-[4-(3-chloro-2-fluoro-phenoxy)phenyl]-1-(1-cyanopiperidin-3-yl)-1H-pyrazole-4-carboxamide] here?
Its IC50 is 3.1 nM.

How did the IC50 turn out when N#CN1CCCC(n2nc(-c3ccc(Cc4ccccc4)cc3)c(C(N)=O)c2N)C1 (centres unmarked) [Example 67] was run?
The IC50 was 2.4 nM.

Which IC50 does the source give for N#CN1CCCC(n2nc(-c3ccc(Oc4ccc(F)cc4)cc3Cl)c(C(N)=O)c2N)C1 (centres unmarked) [Example 120, 5-amino-3-[2-chloro-4-(4-fluorophenoxy)phenyl]-1-(1-cyanopiperidin-3-yl)-1H-pyrazole-4-carboxamide] here?
Its IC50 is 141 nM.

With C[C@H]1CC[C@@H](n2nc(-c3ccc(Oc4ccc(F)cc4F)cc3)c(C(N)=O)c2N)CN1C#N [Example 122, 5-amino-1-[(3R,6S)-1-cyano-6-methylpiperidin-3-yl]-3-[4-(2,4-difluorophenoxy)phenyl]-1H-pyrazole-4-carboxamide] as the compound, how does the IC50 read?
Its IC50 is 0.46 nM.

How did the IC50 turn out when N#CN1CCCC(n2nc(-c3ccc(Oc4ccc(F)cc4Cl)cc3)c(C(N)=O)c2N)C1 (centres unmarked) [Example 35, 5-amino-3-[4-(2-chloro-4-fluorophenoxy)phenyl]-1-(1-cyanopiperidin-3-yl)-1H-pyrazole-4-carboxamide] was run?
Its IC50 is 1.7 nM.

N#C/C=C/C(=O)N1CCC[C@@H](n2nc(-c3ccc(Oc4ccc(Cl)cc4)cc3)c(C(N)=O)c2N)C1 [Example 135, 5-amino-3-[4-(4-chlorophenoxy)phenyl]-1-{(3R)-1-[(2E)-3-cyanoprop-2-enoyl]piperidin-3-yl}-1H-pyrazole-4-carboxamide] was tested. Which IC50 did it give?
The IC50 was 1.2 nM.

Which IC50 does the source give for N#CN1CCCC(n2nc(-c3ccc(Cc4ccc(F)c(F)c4)cc3)c(C(N)=O)c2N)C1 (single isomer, unassigned) [Example 84] here?
The IC50 was 5.6 nM.

Cc1ccc(Oc2ccc(-c3nn(C4CCCN(C#N)C4)c(N)c3C(N)=O)cc2)c(F)c1 (centres unmarked) [Example 39, 5-amino-1-(1-cyanopiperidin-3-yl)-3-[4-(2-fluoro-4-methylphenoxy)phenyl]-1H-pyrazole-4-carboxamide] was tested. Which IC50 did it give?
The IC50 was 1.1 nM.

With Cc1ccc(Oc2ccc(-c3nn(C4CCCN(C#N)C4)c(N)c3C(N)=O)cc2)c(C)c1 (centres unmarked) [Example 23, 5-amino-1-(1-cyanopiperidin-3-yl)-3-[4-(2,4-dimethylphenoxy)phenyl]-1H-pyrazole-4-carboxamide] as the compound, how does the IC50 read?
The IC50 was 9.2 nM.

Which IC50 does the source give for NC(=O)c1c(-c2ccc(Oc3ncc(Cl)cc3F)cc2)nn([C@@H]2CCCN(C(=O)/C=C/CO)C2)c1N [Example 154, 5-amino-3-{4-[(5-chloro-3-fluoropyridin-2-yl)oxy]phenyl}-1-{(3R)-1-[(2E)-4-hydroxybut-2-enoyl]piperidin-3-yl}-1H-pyrazole-4-carboxamide] here?
The IC50 was 49 nM.

For N#CN1CCCC(n2nc(-c3cccc(Oc4ccc(F)cc4)c3)c(C(N)=O)c2N)C1 (centres unmarked) [Example 94, 5-Amino-1-(1-cyanopiperidin-3-yl)-3-(3-(4-fluorophenoxy)phenyl)-1H-pyrazole-4-carboxamide], which IC50 is on record?
Its IC50 is 50.2 nM.

Which IC50 does the source give for N#CN1CCC[C@H](n2nc(-c3ccc(Oc4ncc(Cl)cc4F)cc3)c(C(N)=O)c2N)C1 [Example 119, (S)-5-amino-3-(4-((5-chloro-3-fluoropyridin-2-yl)oxy)phenyl)-1-(1-cyanopiperidin-3-yl)-1H-pyrazole-4-carboxamide] here?
The IC50 was 60.5 nM.

N#CN1CCCC(n2nc(-c3ccc(Oc4ccc(F)c(Cl)c4)cc3)c(C(N)=O)c2N)C1 (centres unmarked) [Example 58, 5-amino-3-[4-(3-chloro-4-fluoro-phenoxy)phenyl]-1-(1-cyanopiperidin-3-yl)-1H-pyrazole-4-carboxamide] was tested. Which IC50 did it give?
Its IC50 is 1.8 nM.

With N#CN1CCCC(n2nc(-c3cccc(Oc4ccccc4)c3)c(C(N)=O)c2N)C1 (single isomer, unassigned) [Example 90] as the compound, how does the IC50 read?
The IC50 was 3.2 nM.

With N#CN1CCC[C@H](n2nc(-c3ccc(Cc4ccccc4F)cc3)c(C(N)=O)c2N)C1 [Example 76, (S)-5-amino-1-(1-cyanopiperidin-3-yl)-3-(4-(2-fluorobenzyl)phenyl)-1H-pyrazole-4-carboxamide] as the compound, how does the IC50 read?
The IC50 was 12 nM.

How did the IC50 turn out when Cc1cc(F)ccc1Oc1ccc(-c2nn(C3CCCN(C#N)C3)c(N)c2C(N)=O)cc1 (single isomer, unassigned) [Example 34] was run?
Its IC50 is 3.8 nM.

With N#CN1CCCC(n2nc(-c3cccc(Oc4ccccc4)c3)c(C(N)=O)c2N)C1 (centres unmarked) [Example 89, 5-amino-1-(1-cyanopiperidin-3-yl)-3-(3-phenoxyphenyl)-1H-pyrazole-4-carboxamide] as the compound, how does the IC50 read?
The IC50 was 7.7 nM.

With N#CN1CCCC(n2nc(-c3ccc(Oc4cc(F)ccc4F)cc3)c(C(N)=O)c2N)C1 (centres unmarked) [Example 43, 5-amino-1-(1-cyanopiperidin-3-yl)-3-[4-(2,5-difluorophenoxy)phenyl]-1H-pyrazole-4-carboxamide] as the compound, how does the IC50 read?
Its IC50 is 0.77 nM.

Which IC50 does the source give for COc1ccccc1Oc1ccc(-c2nn(C3CCCN(C#N)C3)c(N)c2C(N)=O)cc1 (centres unmarked) [Example 65, 5-amino-1-(1-cyanopiperidin-3-yl)-3-[4-(2-methoxyphenoxy)phenyl]-1H-pyrazole-4-carboxamide] here?
Its IC50 is 10.6 nM.

With Cc1ccc(Oc2ccc(-c3nn(C4CCCN(C#N)C4)c(N)c3C(N)=O)cc2)cc1C (single isomer, unassigned) [Example 18] as the compound, how does the IC50 read?
Its IC50 is 3 nM.

Which IC50 does the source give for N#CCN1CCCC(n2nc(-c3ccc(Oc4ccccc4)cc3)c(C(N)=O)c2N)C1 (centres unmarked) [Example 4, 5-amino-1-[1-(cyanomethyl)piperidin-3-yl]-3-(4-phenoxyphenyl)-1H-pyrazole-4-carboxamide] here?
Its IC50 is 35 nM.

Cc1ccc(Oc2ccc(-c3nn(C4CCCN(C#N)C4)c(N)c3C(N)=O)cc2)cc1C (single isomer, unassigned) [Example 17] was tested. Which IC50 did it give?
The IC50 was 0.4 nM.

How did the IC50 turn out when N#CN1CCCC(n2nc(-c3ccc(Oc4ccccc4OC(F)(F)F)cc3)c(C(N)=O)c2N)C1 (centres unmarked) [Example 62, 5-amino-1-(1-cyanopiperidin-3-yl)-3-{4-[2-(trifluoromethoxy)phenoxy]phenyl}-1H-pyrazole-4-carboxamide] was run?
Its IC50 is 3.3 nM.

N#CN1CCCC(n2nc(-c3ccc(Oc4ccc(F)c(OC(F)(F)F)c4)cc3)c(C(N)=O)c2N)C1 (centres unmarked) [Example 46, 5-amino-1-(1-cyanopiperidin-3-yl)-3-{4-[4-fluoro-3-(trifluoromethoxy)-phenoxy]phenyl}-1H-pyrazole-4-carboxamide] was tested. Which IC50 did it give?
Its IC50 is 6.4 nM.

With N#CN1CC(n2nc(-c3ccc(Oc4ccccc4)cc3)c(C(N)=O)c2N)C1 [Example 9, 5-amino-1-(1-cyanoazetidin-3-yl)-3-(4-phenoxyphenyl)-1H-pyrazole-4-carboxamide] as the compound, how does the IC50 read?
Its IC50 is 23.3 nM.

How did the IC50 turn out when N#CN1CCCC(n2nc(-c3ccc(Oc4ccc(Cl)cc4)cc3)c(C(N)=O)c2N)C1 (single isomer, unassigned) [Example 14] was run?
The IC50 was 12.5 nM.
